Columns and labels:
WTB [1] = assay: Example 2 Field Test 3: X and racemic trans-pityol; type: in vivo, Pityophthorus juglandis; conditions: 4-unit Lindgren funnel traps
Experimental: Finally, a flight bioassay of the effect of the compound racemic trans-“pityol” [2-(1-hydroxy-1-methylethyl)-5-methyltetrahydrofuran] was conducted in late summer/early fall at Wolfskill Experimental Orchards. Pityol is a component of the aggregation pheromone of conifer-infesting Pityophthorus species. The response of WTB to racemic trans-pityol (formulated in a polyvinylchloride plastic bubble cap release device, 40 mg load, 0.2 mg/d release rate at 20° C., product #300000272, Contech Enterprises) and pityol in combination with 3-methyl-2-buten-1-ol (release rate 15-80 mg/d, LDPE plastic pouch Contech) was tested (Table 3, Field Test 3). The four treatments were replicated in three spatial blocks and the treatments were re-randomized among the four trap stations in a block each time the traps were emptied (nearly every day).
(§1) Statistical Analyses. Analysis of treatment effects for the pouch vs. bottle experiment was done by using a sign test. (See Zar, J. H. 2010. Biostatistical Analysis. 5th ed. Pearson Prentice Hall, Englewood Cliffs, N.J.) The other four experiments were analyzed for treatment effect by using Friedman's non-parametric analysis of variance. Id. In all experiments, males and females were analyzed separately. All treatments within experiments yielding a significant treatment effect were compared by using an a posteriori Nemenyi test with experimentwise α=0.05. Id. For all experiments, differences among proportions of female WTB responding to treatments were analyzed by comparing 95% confidence intervals determined with the Clopper-Pearson method. Id.

[2] = test system: walnut twig beetle (WTB), Pityophthorus juglandis; assay: Example 1 Field Test 3: flight response to X with and without enantiomers of trans-conophthorin; type: in vivo; conditions: yellow sticky card traps, Pleasanton CA
Experimental: Field Bioassays of Semiochemicals. To test the attractiveness of the various compounds of interest, some of the commercially available materials listed above were poured into 15 ml capped polyethylene bottles (Product #s A1-1050/002, A1-1055/002; Contech Enterprises Inc., Delta, British Columbia, Canada) and attached to yellow sticky card traps (Trécé, Adair, OK). In addition, synthesized (+) and (−) enantiomers of trans-conophthorin were tested in 400 μl polyethylene Eppendorf microcentrifuge tubes. Four field studies were conducted (Table 2) that tested the flight responses to: 3-methyl-2-buten-l-ol and related isomers (Field Test 1); 3-methyl-2-buten-l-ol with and without racemic trans-conophthorin (Field Test 2); 3-methyl-2-buten-l-ol with and without the purified enantiomers of trans-conophthorin (Field Test 3); and 3-methyl-2-buten-l-ol with and without racemic chalcogran (Field Test 4).
Statistical Analysis. Field Tests 1-4 were each analyzed for treatment effect by using Friedman's non-parametric analysis of variance. (See Zar, J. H. 2010. Biostatistical Analysis, 5th Ed. Pearson Prentice Hall, New Jersey). Males and females were subjected to separate analyses. All treatments within experiments yielding a significant treatment effect were compared by using an a posteriori Nemenyi test (Zar 2010) with experimentwise α=0.05. Sex ratios of responding WTB were determined using Cochran's method for unbiased sampling (See Cochran, W. G. 1977. Sampling Techniques, 3rd ed. John Wiley, New York), with 95% confidence intervals calculated by using the Clopper-Pearson method. (See Zar, J. H. 2010. Biostatistical Analysis, 5th Ed. Pearson Prentice Hall, New Jersey).

[3] = test system: walnut twig beetle (WTB), Pityophthorus juglandis; assay: Example 1 Field Test 1: flight response to X and related isomers, yellow sticky card traps; type: in vivo
Experimental: Field Bioassays of Semiochemicals. […] Contech Enterprises Inc., Delta, British Columbia, Canada) and attached to yellow sticky card traps ([…], OK). In addition, synthesized (+) and (-) enantiomers of trans-conophthorin were tested in 400 μl polyethylene Eppendorf microcentrifuge tubes. Four field studies were conducted (Table 2) that tested the flight responses to: 3-methyl-2-buten-l-ol and related isomers (Field Test 1); 3-methyl-2-buten-l-ol with and without racemic trans-conophthorin (Field Test 2); 3-methyl-2-buten-l-ol with and without the purified enantiomers of trans-conophthorin (Field Test 3); and 3-methyl-2-buten-l-ol with and without racemic chalcogran (Field Test 4). [table] Statistical Analysis. Field Tests 1-4 were each analyzed for treatment effect by using Friedman's non-parametric analysis of variance. (See Zar, J. H. 2010. Biostatistical Analysis, 5th Ed. Pearson Prentice Hall, New Jersey). Males and females were subjected to separate analyses. All treatments within experiments yielding a significant treatment effect were compared by using an a posteriori Nemenyi test (Zar 2010) with experimentwise α=0.05. Sex ratios of responding WTB were determined using Cochran's method for unbiased sampling (See Cochran, W. G. 1977. Sampling Techniques, 3rd ed. John Wiley, New York), with 95% confidence intervals calculated by using the Clopper-Pearson method. (See Zar, J. H. 2010. Biostatistical Analysis, 5th Ed. Pearson Prentice Hall, New Jersey).

WTB [4] = assay: Example 2 Field Test 2: X in combination with DMNT, vittatol, rose oxides; type: in vivo, Pityophthorus juglandis; set-up: trap catches, male WTB / trap catches, female WTB: dose or concentration left out as unconfirmed; conditions: 4-unit Lindgren funnel traps
Experimental: At the same time and location, the flight response of WTB to 3-methyl-2-buten-1-ol ([…], Contech) was tested in combination with each of the following compounds: DMNT [4,8-dimethyl-1,3(E),7-nonatriene], vittatol [(3R,6R)-3-hydroxy-2,2,6-trimethyltetrahydropyran], (−)- and (+)-rose oxide [tetrahydro-4-methyl-2-(2-methylpropenyl)-2H-pyran] (Table 3, Field Test 2). DMNT and vittatol were synthesized and provided by Prof. Wittko Francke, University of Hamburg, Institute of Organic Chemistry; whereas (−)-rose oxide (>99% chemical purity, product #83917-1 ML, Fluka, Milwaukee, Wis.) and (+)-rose oxide (>99% chemical purity, product #83915-1 ML, Fluka) were purchased. The compounds besides 3-methyl-2-buten-1-ol were released from closed 400 μl Eppendorf microcentrifuge tubes (Evergreen) with loads of approximately 50 μl (DMNT); 20 mg (vittatol, solid at room temperature); and approx. 200 μl each of (−)-and (+)-rose oxide. The six treatments were replicated in three spatial blocks and the treatments were re-randomized among the six trap stations in a block each time the traps were emptied (nearly every day).
as §1

[5] = X 15-80 mg/d, pityol 0.2 mg/d, N=93
[6] = about three months in summer, Davis CA, N=21

CC(C)=CCO [X, 3-methyl-2-buten-1-ol]
proportion of females responding (WTB [1]): 0.80
trap catches, female WTB (WTB [1]; [5]): 2100
trap catches, male WTB (WTB [1]; [5]): 539
proportion of females responding [2]: 0.80
trap catches, female WTB ([2]; about one month in fall, N=15): 47
trap catches, male WTB ([2]; about one month in fall, N=15): 12
flight attraction [3]: attractive to males and females
proportion of females responding ([3]; Davis CA): 0.65
trap catches, female WTB [3, 6]: 438
trap catches, male WTB [3, 6]: 233
proportion of females responding (WTB [4]): 0.70
trap catches, female WTB (WTB [4]; N=42): 100
trap catches, male WTB (WTB [4]; N=42): 43
